Test results reported in PMC6757289, “Design and Characterization of SGK3-PROTAC1, an Isoform Specific SGK3 Kinase PROTAC Degrader” (ACS Chemical Biology, 2019).

Columns and labels:
Type in all cases: cell-based
SGK2 = molecular target: T1, SGK2 (Homo sapiens, UniProt Q9HBY8); test: SGK2 protein level in HEK293 cells, immunoblot; conditions: HEK293, 48 h
T1 construct: reduced endogenous SGK isoform or S6K1 expression when administered to HEK293 cells for 48 h; endogenous in cells; host or cells: HEK293
Method: A medium length linker composed of three PEG units was used in the first instance (Figure 1B and C). […] After 48 h of PROTAC treatment, cell lysates were analyzed by immunoblot analysis, and protein expression under each condition was quantified relative to the DMSO-only control. […] DAT1 reduced SGK3 expression by 60% at 1 μM and 75% at 10 μM after 48 h (Figure 1D). […] As expected, inhibition of CUL2 neddylation by means of the inhibitor MLN4924 (3 μM) or proteasome inhibition (MG132, 50 μM) blocked DAT1-induced degradation of SGK3 (Figure S1C).
All cell treatments were carried out as described in figure legends, to a final DMSO concentration of 0.1% (v/v). Lysates were quantified. Immunoblotting was performed using standard procedures, described in brief below. Lysate concentration was quantified by Bradford Assay, and 10 μg of lysate was loaded in the LDS sample buffer for SDS-PAGE electrophoresis on Novex 4–12% Bis–Tris gels. Proteins were electrophoretically transferred onto nitrocellulose membranes (Amersham Protran 0.45 μm NC; GE Healthcare) at 80 V for 80 min on ice in transfer buffer. […] The signal was produced with near-infrared secondary antibodies and detected using a Licor Biosciences Odyssey System, and the signal was quantified in Image Studio Lite.

[1] = test system: mTORC1-mediated phosphorylation of S6K1 at Thr389; test: mTORC1 signaling in CAMA-1 cells treated with PI3K or Akt inhibitor, immunoblot; conditions: CAMA-1, 5 days 1 μM GDC0941 or AZD5363; 0.3 μM
Method: We therefore aimed to investigate the effect that degradation of SGK3 would have on this resistance pathway and whether SGK3-PROTAC1 treatment could reverse inhibitor resistance. To investigate the effect of SGK3-PROTAC1 under these conditions, we treated CAMA-1 (Figure 5A,C) or ZR-75-1 (Figure 5B,D) for 5 days with either a class 1A PI3K inhibitor (GDC0941 1 μM;[38]Figure 5A,B) or an Akt inhibitor (AZD5363, 1 μM;[39]Figure 5C,D). These cells were treated with SGK3-PROTAC1 or cisSGK3-PROTAC1 (0.3 μM) for either 5 days in combination with the inhibitors or 8 h before lysis.
Figure 5 SGK3-PROTAC1-mediated degradation of SGK3 inhibits Akt-independent activation of mTORC1 in cancer cell lines treated with Akt or PI3K inhibitors. CAMA-1 (A, C) or ZR-75-1 (B, D) were treated for 5 days with 1 μM GDC0941 (A, B) or 1 μM AZD5363 (C, D). […]
All cell treatments were carried out as described in figure legends, to a final DMSO concentration of 0.1% (v/v). Lysates were quantified. […] Lysate concentration was quantified by Bradford Assay, and 10 μg of lysate was loaded in the LDS sample buffer for SDS-PAGE electrophoresis on Novex 4–12% Bis–Tris gels. […] The signal was produced with near-infrared secondary antibodies and detected using a Licor Biosciences Odyssey System, and the signal was quantified in Image Studio Lite.

CAMA-1 cells = test: Cell growth (confluency, Incucyte S3); conditions: for growth in combination with GDC0941 or AZD5363: 1 μM GDC0941 or AZD5363, SGK3-PROTAC1/cisSGK3-PROTAC1 0.3 μM, 14H 3 μM
Method: (§1) Figure 6 SGK3-PROTAC1-mediated degradation of SGK3 further inhibiting the growth of cancer cell lines treated with PI3K-Akt pathway inhibitors. CAMA-1 (A, C) and ZR-75-1 (B, D) were treated with compounds as indicated either as monotherapy or in combination, and confluency was measured on the Incucyte S3 every 4 h for up to 4 weeks.
(§2) For growth assays, ZR-75-1 cells were seeded in 96-well plates at a density of 6000 cells/well and left to adhere overnight. Cells were then treated with compounds as described in the figure legends and imaged every 4 h on the Incucyte S3 (Essen Bioscience) for up to 4 weeks to give a measure of cell confluency. Media were refreshed every 4–5 days.
(§3) Supplementary Figure S3. SGK3-PROTAC compounds have no effect on cell growth. CAMA-1 and ZR-75-1
(§4) confluency was m easured every 4 h on Incucyte S3.
(§5) (1 picture or pasted object on this page, not shown here)

ZR-75-1 cells = test: Cell growth (confluency, Incucyte S3); conditions: for growth in combination with GDC0941 or AZD5363: 1 μM GDC0941 or AZD5363, SGK3-PROTAC1/cisSGK3-PROTAC1 0.3 μM, 14H 3 μM
Method: as §1, §2, §3, §4, §5

T1 sequence (Q9HBY8 whole entry, canonical isoform): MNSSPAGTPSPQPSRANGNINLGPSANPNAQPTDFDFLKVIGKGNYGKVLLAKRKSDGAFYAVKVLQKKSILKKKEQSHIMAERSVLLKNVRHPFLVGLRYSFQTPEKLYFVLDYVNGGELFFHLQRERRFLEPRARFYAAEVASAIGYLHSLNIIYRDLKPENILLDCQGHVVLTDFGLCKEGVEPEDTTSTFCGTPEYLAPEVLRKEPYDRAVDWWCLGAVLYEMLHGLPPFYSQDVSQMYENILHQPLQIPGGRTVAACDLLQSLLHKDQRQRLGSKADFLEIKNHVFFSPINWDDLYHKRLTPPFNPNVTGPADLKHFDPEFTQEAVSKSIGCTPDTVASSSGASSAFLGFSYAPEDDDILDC

| SGK2 level (SGK2; up to 10 μM) | SMILES | SGK2 level (SGK2; 0.1 μM) | phosphorylation of S6K1 at Thr389 [1] | growth, compound alone (CAMA-1 cells; CAMA-1) | suppression of growth compared with 14H (3 μM) (CAMA-1 cells; CAMA-1, 0.3 μM, with AZD5363 1 μM) | inhibition of cell growth compared with 14H (3 μM) (CAMA-1 cells; CAMA-1, 0.3 μM, with GDC0941 1 μM) | growth in combination with GDC0941 or AZD5363 (CAMA-1 cells; CAMA-1) | growth, compound alone (ZR-75-1 cells; ZR-75-1) | suppression of growth compared with 14H (3 μM) (ZR-75-1 cells; ZR-75-1, 0.3 μM, with AZD5363 1 μM) | inhibition of cell growth compared with 14H (3 μM) (ZR-75-1 cells; ZR-75-1, 0.3 μM, with GDC0941 1 μM) | growth in combination with GDC0941 or AZD5363 (ZR-75-1 cells; ZR-75-1) |
| --- | --- | --- | --- | --- | --- | --- | --- | --- | --- | --- | --- |
| not significantly impacted | Cc1ccc(F)c(S(=O)(=O)Nc2ccc(-c3nc(OC[C@H]4CN(CCOCCOCCOCC(=O)N[C@H](C(=O)N5C[C@H](O)C[C@H]5C(=O)NCc5ccc(-c6scnc6C)cc5)C(C)(C)C)CCO4)c4cn[nH]c4n3)cc2)c1 [DAT1] |  |  |  |  |  |  |  |  |  |  |
|  | Cc1ccc(F)c(S(=O)(=O)Nc2ccc(-c3nc(OC[C@H]4CN(CCCCCCOCCOCCOCC(=O)N[C@H](C(=O)N5C[C@H](O)C[C@H]5C(=O)NCc5ccc(-c6scnc6C)cc5)C(C)(C)C)CCO4)c4cn[nH]c4n3)cc2)c1 [SGK3-PROTAC1] | without effecting | suppressed | no effect on growth | to a similar extent | to a greater extent | further reduced the growth | no effect on growth | to a similar extent | to a greater extent | further reduced the growth |
|  | Cc1ccc(F)c(S(=O)(=O)Nc2ccc(-c3nc(OC[C@H]4CN(CCCCCCOCCOCCOCC(=O)N[C@H](C(=O)N5C[C@@H](O)C[C@H]5C(=O)NCc5ccc(-c6scnc6C)cc5)C(C)(C)C)CCO4)c4cn[nH]c4n3)cc2)c1 [cisSGK3-PROTAC1] |  | no significant effect |  |  |  | minimal effect |  |  |  | minimal effect |
